Earlier results on one molecule are cited in US20060153907A1, “Liposome formulations of boronic acid compounds” (priority 2004, published 2006).

The data set deals with tumor lines. The conditions noted are these: NCI in vitro screen.

As for `CC(C)C[C@H](NC(=O)[C@H](Cc1ccccc1)NC(=O)c1cnccn1)B(O)O` [bortezomib], the “cytotoxicity against a range of tumor lines” value is given as “showed cytotoxicity”.
